Test results reported in ChEMBL document CHEMBL1759962, “Anti-inflammatory effect of soyasaponins through suppressing nitric oxide production in LPS-stimulated RAW 264.7 cells by attenuation of NF-κB-mediated nitric oxide synthase expression” (Bioorg Med Chem Lett, 2011).
Activity calls are given as the source filed them. The rule behind the calls is not given here.

How the values were obtained:
[1] = target: T1, Nitric oxide synthase, inducible (Mus musculus) (UniProt P29477); experiment: Inhibition of iNOS activity in LPS-stimulated mouse RAW264.7 cells assessed as conversion of L-[…] arginine to L-[3H] citruline per mg of protein at 25 ug/ml after 24 hrs; assay type: cell-based
T1 sequence (whole entry): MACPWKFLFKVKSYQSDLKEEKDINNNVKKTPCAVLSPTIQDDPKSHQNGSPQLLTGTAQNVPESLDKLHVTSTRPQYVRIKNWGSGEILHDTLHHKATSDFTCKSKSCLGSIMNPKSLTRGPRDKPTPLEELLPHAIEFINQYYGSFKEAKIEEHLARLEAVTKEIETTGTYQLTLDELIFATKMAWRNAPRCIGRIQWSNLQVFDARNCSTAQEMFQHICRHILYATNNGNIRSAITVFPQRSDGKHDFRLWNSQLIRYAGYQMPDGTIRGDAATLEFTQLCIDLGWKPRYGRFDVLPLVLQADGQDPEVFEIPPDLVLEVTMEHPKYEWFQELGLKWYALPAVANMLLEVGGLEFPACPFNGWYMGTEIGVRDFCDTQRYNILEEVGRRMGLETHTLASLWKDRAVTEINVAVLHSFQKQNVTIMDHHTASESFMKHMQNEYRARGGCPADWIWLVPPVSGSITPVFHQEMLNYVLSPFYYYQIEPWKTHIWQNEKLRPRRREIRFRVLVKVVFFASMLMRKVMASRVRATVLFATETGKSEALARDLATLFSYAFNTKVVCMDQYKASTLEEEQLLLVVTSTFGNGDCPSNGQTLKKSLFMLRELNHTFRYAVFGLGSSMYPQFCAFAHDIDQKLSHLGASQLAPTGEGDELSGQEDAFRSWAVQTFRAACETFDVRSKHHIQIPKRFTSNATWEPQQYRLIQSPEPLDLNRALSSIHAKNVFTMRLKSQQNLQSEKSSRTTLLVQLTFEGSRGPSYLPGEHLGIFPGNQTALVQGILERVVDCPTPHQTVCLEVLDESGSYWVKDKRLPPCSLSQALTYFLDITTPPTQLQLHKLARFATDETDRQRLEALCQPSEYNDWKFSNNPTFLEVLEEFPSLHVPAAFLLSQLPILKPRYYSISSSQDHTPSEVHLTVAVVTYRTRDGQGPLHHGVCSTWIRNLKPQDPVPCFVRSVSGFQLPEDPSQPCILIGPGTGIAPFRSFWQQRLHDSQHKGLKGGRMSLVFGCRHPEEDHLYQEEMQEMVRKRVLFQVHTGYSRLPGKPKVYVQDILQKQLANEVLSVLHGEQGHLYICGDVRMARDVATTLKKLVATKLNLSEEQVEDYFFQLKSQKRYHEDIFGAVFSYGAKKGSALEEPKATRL

RAW264.7 [2] = experiment: Cytotoxicity against mouse RAW264.7 cells at 25 to 200 ug/ml after 24 hrs by MTT assay; assay type: cell-based; details: raw264.7, 24 h
RAW264.7 [3] = experiment: Inhibition of iNOS mRNA expression in LPS-stimulated mouse RAW264.7 cells at 100 ug/ml after 24 hrs by real time fluorescent quantitative real time PCR relative to negative control; assay type: functional
RAW264.7 [4] = experiment: Inhibition of iNOS mRNA expression in LPS-stimulated mouse RAW264.7 cells at 25 ug/ml after 24 hrs by real time fluorescent quantitative real time PCR relative to negative control; assay type: functional
RAW264.7 [5] = experiment: Inhibition of iNOS mRNA expression in LPS-stimulated mouse RAW264.7 cells at 200 ug/ml after 24 hrs by real time fluorescent quantitative real time PCR relative to negative control; assay type: functional
RAW264.7 [6] = experiment: Antiinflammatory activity in mouse RAW264.7 cells assessed as inhibition of LPS-induced IL-1 release by ELISA; assay type: functional, cell-based
RAW264.7 [7] = experiment: Inhibition of LPS-induced NF-kappaB activation in mouse RAW264.7 cells expressing pNF-kappaB-LUC at 25 to 200 ug/ml after 24 hrs by luciferase reporter gene assay relative to unstimulated cells; assay type: cell-based
RAW264.7 [8] = experiment: Antiinflammatory activity in mouse RAW264.7 cells assessed as inhibition of LPS-induced TNFalpha release by ELISA; assay type: functional, cell-based
RAW264.7 [9] = experiment: Antiinflammatory activity in mouse RAW264.7 cells assessed as inhibition of LPS-induced IL-6 release by ELISA; assay type: functional, cell-based
[10] = target: T1, Nitric oxide synthase, inducible (Mus musculus); experiment: Inhibition of iNOS-mediated nitric oxide production in LPS-stimulated mouse RAW264.7 cells measured after 24 hrs by Griess reaction method; assay type: cell-based
[11] = target: T1, Nitric oxide synthase, inducible (Mus musculus); experiment: Inhibition of iNOS activity in LPS-stimulated mouse RAW264.7 cells assessed as conversion of L-[…] arginine to L-[3H] citruline per mg of protein at 50 ug/ml after 24 hrs; assay type: cell-based
[12] = target: T1, Nitric oxide synthase, inducible (Mus musculus); experiment: Inhibition of iNOS activity in LPS-stimulated mouse RAW264.7 cells assessed as conversion of L-[…] arginine to L-[3H] citruline per mg of protein at 200 ug/ml after 24 hrs; assay type: cell-based
RAW264.7 [13] = experiment: Inhibition of iNOS mRNA expression in LPS-stimulated mouse RAW264.7 cells at 50 ug/ml after 24 hrs by real time fluorescent quantitative real time PCR relative to negative control; assay type: functional
[14] = target: T1, Nitric oxide synthase, inducible (Mus musculus); experiment: Inhibition of iNOS activity in LPS-stimulated mouse RAW264.7 cells assessed as conversion of L-[…] arginine to L-[3H] citruline per mg of protein at 100 ug/ml after 24 hrs; assay type: cell-based
[15] = target: T1, Nitric oxide synthase, inducible (Mus musculus); experiment: Inhibition of iNOS activity in LPS-stimulated mouse RAW264.7 cells assessed as conversion of L-[…] arginine to L-[3H] citruline per mg of protein after 24 hrs; assay type: cell-based
[16] = target: T1, Nitric oxide synthase, inducible (Mus musculus); experiment: Inhibition of iNOS-mediated nitric oxide production in LPS-stimulated mouse RAW264.7 cells at 10 ug/ml measured after 24 hrs by Griess reaction method; assay type: cell-based
[17] = target: T1, Nitric oxide synthase, inducible (Mus musculus); experiment: Inhibition of iNOS activity in LPS-stimulated mouse RAW264.7 cells assessed as conversion of L-[…] arginine to L-[3H] citruline per mg of protein at 10 ug/ml after 24 hrs; assay type: cell-based
[18] = target: T1, Nitric oxide synthase, inducible (Mus musculus); experiment: Inhibition of iNOS-mediated nitric oxide production in LPS-stimulated mouse RAW264.7 cells at 25 to 200 ug/ml measured after 24 hrs by Griess reaction method; assay type: cell-based

Compound	Activity [1] [pmol/min]	Activity (RAW264.7 [2])	fold change (FC) (RAW264.7 [3])	fold change (FC) (RAW264.7 [4])	fold change (FC) (RAW264.7 [5])	inhibition (RAW264.7 [6])	inhibition (RAW264.7 [7])	inhibition (RAW264.7 [8])	inhibition (RAW264.7 [9])	inhibition [10]	Activity [11] [pmol/min]	Activity [12] [pmol/min]	fold change (FC) (RAW264.7 [13])	Activity [14] [pmol/min]	inhibition [15]	inhibition [16]	Activity [17] [pmol/min]	inhibition [18]
CC1(C)C[C@H]2C3=CC[C@@H]4[C@@]5(C)CC[C@H](O[C@@H]6O[C@H](C(=O)O)[C@@H](O)[C@H](O)[C@H]6O[C@@H]6O[C@H](CO)[C@@H](O)[C@@H](O)[C@H]6O)[C@](C)(CO)[C@@H]5CC[C@@]4(C)[C@]3(C)CC[C@@]2(C)[C@H](O[C@@H]2OC[C@H](O)[C@@H](O)[C@H]2O[C@@H]2O[C@H](CO)[C@@H](O)[C@@H](O)[C@H]2O)[C@@H]1O [SOYASAPONIN A2]	23.6	Non-toxic	5.7	11.4	4.4	inactive	Dose-dependent effect	Active	inactive	Dose-dependent effect	19	9.3	10.7	14	Dose-dependent effect			
C[C@@H]1O[C@@H](O[C@H]2[C@H](O[C@H]3[C@H](O[C@H]4CC[C@@]5(C)[C@@H](CC[C@]6(C)[C@@H]5CC=C5[C@@H]7CC(C)(C)C[C@@H](O)[C@]7(C)CC[C@]56C)[C@@]4(C)CO)O[C@H](C(=O)O)[C@@H](O)[C@@H]3O)O[C@H](CO)[C@H](O)[C@@H]2O)[C@H](O)[C@H](O)[C@H]1O [SOYASAPONIN I]	24	Non-toxic	6.8	11.1	5.6	inactive	Dose-dependent effect	Active	inactive	Dose-dependent effect	16.6	9.2	8.8	11.7	Dose-dependent effect			
N=C(N)NN																inactive	2.7	
CC1(C)C[C@H]2C3=CC[C@@H]4[C@@]5(C)CC[C@H](O)[C@](C)(CO)[C@@H]5CC[C@@]4(C)[C@]3(C)CC[C@@]2(C)[C@H](O)[C@@H]1O [SOYASAPOGENOL A]	27.7	Non-toxic	15.1	15.1	15.3	inactive		inactive	inactive		27	27	15	26.9				inactive
CC1(C)C[C@@H](O)[C@]2(C)CC[C@]3(C)C(=CC[C@@H]4[C@@]5(C)CC[C@H](O)[C@](C)(CO)[C@@H]5CC[C@]43C)[C@@H]2C1 [SOYASAPOGENOL B]	27.4	Non-toxic	14.7	14.7	15.4	inactive		inactive	inactive		26.5	27.1	14.8	26.6				inactive
CC1(C)C[C@H]2C3=CC[C@@H]4[C@@]5(C)CC[C@H](O[C@@H]6O[C@H](C(=O)O)[C@@H](O)[C@H](O)[C@H]6O[C@@H]6O[C@H](CO)[C@H](O)[C@H](O)[C@H]6O[C@@H]6O[C@H](CO)[C@@H](O)[C@H](O)[C@H]6O)[C@](C)(CO)[C@@H]5CC[C@@]4(C)[C@]3(C)CC[C@@]2(C)[C@H](O[C@@H]2OC[C@H](O)[C@@H](O)[C@H]2O[C@@H]2O[C@H](CO)[C@@H](O)[C@@H](O)[C@H]2O)[C@@H]1O [SOYASAPONIN A1]	22.3	Non-toxic	7.5	11.6	5.1	inactive	Dose-dependent effect	Active	inactive	Dose-dependent effect	18.3	6.2	11.3	11.4	Dose-dependent effect			
